In US6410040B1, “Polymeric compounds and methods of formulating same” (Chemeq Limited, priority 1998, dated 2002):
Each block holds one molecule with its values, some of them ahead of it.

Key:
A. niger = experiment: Minimal Kill Concentration Test; assay type: cell-based; conditions: Experiment 1
Procedure: (§1) 2. Minimal Kill Concentration Test
(§2) Make serial 1 in 2 dilutions of the sample using sterile 0.85% saline. Add 0.1 mL of suspension of test organism to the dilution. Incubate at 37° C. for 24 hours. Subculture 1 mL from each tube into 10 mL sterile nutrient broth plus TWEEN 80; incubate at 37° C. for 24 hours.
(§3) If the Minimum Kill Concentrations of compounds A, B, and a mixture of A and B are a, b and m, respectively, then there is synergy (“S”) upon mixing A and B if
(§4) ie. S=(a+b)/m>1 for synergy

B. cereus = experiment: Minimal Kill Concentration Test; assay type: cell-based; conditions: Experiment 1
Procedure: as §1, §2, §3, §4

C. albicans = experiment: Minimal Kill Concentration Test; assay type: cell-based; conditions: Experiment 1
Procedure: as §1, §2, §3, §4

E. coli = experiment: Minimal Kill Concentration Test; assay type: cell-based; conditions: Experiment 1
Procedure: as §1, §2, §3, §4

P. vulgaris = experiment: Minimal Kill Concentration Test; assay type: cell-based; conditions: Experiment 1
Procedure: as §1, §2, §3, §4

Ps. aeruginosa = experiment: Minimal Kill Concentration Test; assay type: cell-based
Procedure: as §1, §2, §3, §4

S. aureus = experiment: Minimal Kill Concentration Test; assay type: cell-based
Procedure: as §1, §2, §3, §4

[1] = Migration of sunscreen agents across a membrane model for skin; assay type: in vitro ADME; conditions: solution in ethanol
Procedure: The effects of the presence of poly(2-propenal, 2-propenoic acid) on the migration of various agents across a model for skin were studied as follows. Results are shown in Table 8: In a special apparatus, the samples were applied to one side of a 0.45 micron cellulose acetate membrane in contact with, on the other side, a stirred solution of ethanol. “After” 1.5 hours, the spectrum of the “ethanol” was compared with the “Before” solution of sample in the same solvent: […]

Compound: O=C(O)CN(CCN(CC(=O)O)CC(=O)O)CC(=O)O [EDTA, ethylene diamine tetra acetic acid]
Minimum Kill Concentration A. niger (A. niger): 1250 p.p.m. | Minimum Kill Concentration B. cereus (B. cereus): 80 p.p.m. | Minimum Kill Concentration C. albicans (C. albicans): 155 p.p.m. | Minimum Kill Concentration E. coli (E. coli): 80 p.p.m. | Minimum Kill Concentration P. vulgaris (P. vulgaris): 155 p.p.m. | Minimum Kill Concentration Ps. aeruginosa (Ps. aeruginosa; Experiment 1): 625 p.p.m. | Minimum Kill Concentration S. aureus (S. aureus; Experiment 1): 625 p.p.m.

Compound: O=CCCCC=O [glutaraldehyde]
Minimum Kill Concentration Ps. aeruginosa (Ps. aeruginosa; Experiment 2): 155 p.p.m. | Minimum Kill Concentration S. aureus (S. aureus; Experiment 2): 80 p.p.m.

max (UV spectrum), Before [1]: max = 315 nm
Compound: CCCCC(CC)COC(=O)c1ccc(N(C)C)cc1 (stereo not shown) [octyl dimethyl p-aminobenzoate]

max (UV spectrum), Before [1]: max = 310 nm
Compound: CCCCC(CC)COC(=O)C=Cc1ccc(OC)cc1 (stereo not shown) [octyl methoxy cinnimate]

Compound: Oc1ccccc1-c1ccccc1.[Na] [phenol, orthophenylphenol, sodium salt]
Minimum Kill Concentration Ps. aeruginosa (Ps. aeruginosa; Experiment 2): >10000 p.p.m. | Minimum Kill Concentration S. aureus (S. aureus; Experiment 2): 20 p.p.m.
